From US11771738B2 (Zoetis Services LLC, priority 2018, dated 2023)
Like-named read-outs stand apart in the source and are kept apart here.

What was measured:
Type in all cases: cell-based
[1] = test system: microfilariae of Dirofilaria immitis; assay: Dirofilaria immitis, Microfilaria (DiMf) In Vitro Assay; details: Dirofilaria immitis, 72 h, read-out: DiMf MED, Minimum Effective Dose, D. immitis microfilariae motility, in vitro
[2] = test system: third stage larvae of Haemonchus contortus; assay: Haemonchus contortus, Larvae Stage 3 (HcL3) In Vitro Assay; details: Haemonchus contortus, 96 h
D. immitis L4 larvae = assay: Dirofilaria immitis, L4 Stage (DiL4) In Vitro Assay; details: for minimal effective concentration: Dirofilaria immitis, 72 h, read-out: DiL4 MED, Minimum Effective Dose, D. immitis L4 larvae motility, in vitro; for DiMf/DiL4: larval stage selectivity, ratio of DiMf MED to DiL4 MED
[3] = read-out: HcL3 MED, Haemonchus contortus third stage larvae in vitro, class mark appended to the Ex # in Table 3
[4] = read-out: HcL3 MED, Minimum Effective Dose, H. contortus third stage larvae, approximately 96 hours
[5] = read-out: HcL3 MED, approximately 96 hours incubation, multiple-resistant field isolate

Structure (SMILES): Cc1noc(C)c1Cc1ccc(C[C@H]2OC(=O)[C@H](CC(C)C)N(C)C(=O)[C@@H](C)OC(=O)[C@H](CC(C)C)N(C)C(=O)[C@@H](Cc3ccc(Cc4c(C)noc4C)cc3)OC(=O)[C@H](CC(C)C)N(C)C(=O)[C@@H](C)OC(=O)[C@H](CC(C)C)N(C)C2=O)cc1 [Example 3-21, (3S,6R,9S,12R,15S,18R,21S,24R)-6,18-bis(4-((3,5-dimethylisoxazol-4-yl)methyl)benzyl)-3,9,15,21-tetraisobutyl-4,10,12,16,22,24-hexamethyl-1,7,13,19-tetraoxa-4,10,16,22-tetraazacyclotetracosan-2,5,8,11,14,17,20,23-octaone]
- minimal effective concentration [1]: 0.0001 µM
- minimal effective concentration [2, 3]: < 1 µM
- minimal effective concentration [2, 4]: 0.3 µM
- minimal effective concentration [2, 5]: ≤ 1 µM
- minimal effective concentration (D. immitis L4 larvae): < 3e-05 µM
- DiMf/DiL4 (D. immitis L4 larvae): >3.3

Structure (SMILES): CC(C)C[C@H]1C(=O)O[C@H](Cc2ccc(Cc3ccnn3C)cc2)C(=O)N(C)[C@@H](CC(C)C)C(=O)O[C@H](C)C(=O)N(C)[C@@H](CC(C)C)C(=O)O[C@H](Cc2ccc(Cc3ccnn3C)cc2)C(=O)N(C)[C@@H](CC(C)C)C(=O)O[C@H](C)C(=O)N1C [Example 3-24, (3S,6R,9S,12R,15S,18R,21S,24R)-3,9,15,21-tetraisobutyl-4,6,10,16,18,22-hexamethyl-12,24-bis(4-((1-methyl-1H-pyrazol-5-yl)methyl)benzyl)-1,7,13,19-tetraoxa-4,10,16,22-tetraazacyclotetracosan-2,5,8,11,14,17,20,23-octaone]
- minimal effective concentration [1]: 0.0001 µM
- minimal effective concentration [2, 3]: < 1 µM
- minimal effective concentration [2, 4]: 1 µM
- minimal effective concentration [2, 5]: ≤ 1 µM
- minimal effective concentration (D. immitis L4 larvae): 3e-05 µM
- DiMf/DiL4 (D. immitis L4 larvae): 3.3

Structure (SMILES): COc1ncccc1Cc1ccc(C[C@H]2OC(=O)[C@H](CC(C)C)N(C)C(=O)[C@@H](C)OC(=O)[C@H](CC(C)C)N(C)C(=O)[C@@H](Cc3ccc(Cc4cccnc4OC)cc3)OC(=O)[C@H](CC(C)C)N(C)C(=O)[C@@H](C)OC(=O)[C@H](CC(C)C)N(C)C2=O)cc1 [Example 3-31, (3S,6R,9S,12R,15S,18R,21S,24R)-3,9,15,21-tetraisobutyl-6,18-bis(4-((2-methoxypyridin-3-yl)methyl)benzyl)-4,10,12,16,22,24-hexamethyl-1,7,13,19-tetraoxa-4,10,16,22-tetraazacyclotetracosan-2,5,8,11,14,17,20,23-octaone]
- minimal effective concentration [1]: 0.005 µM
- minimal effective concentration [2, 3]: 1 to 3.3 µM
- minimal effective concentration [2, 4]: 2.4 µM
- minimal effective concentration (D. immitis L4 larvae): 0.0002 µM
- DiMf/DiL4 (D. immitis L4 larvae): 25

Structure (SMILES): Cc1ccsc1Cc1ccc(C[C@H]2OC(=O)[C@H](CC(C)C)N(C)C(=O)[C@@H](C)OC(=O)[C@H](CC(C)C)N(C)C(=O)[C@@H](Cc3ccc(Cc4sccc4C)cc3)OC(=O)[C@H](CC(C)C)N(C)C(=O)[C@@H](C)OC(=O)[C@H](CC(C)C)N(C)C2=O)cc1 [Example 3-44, (3S,6R,9S,12R,15S,18R,21S,24R)-3,9,15,21-tetraisobutyl-4,6,10,16,18,22-hexamethyl-12,24-bis(4-((3-methylthiophen-2-yl)methyl)benzyl)-1,7,13,19-tetraoxa-4,10,16,22-tetraazacyclotetracosan-2,5,8,11,14,17,20,23-octaone]
- minimal effective concentration [1]: 0.1 µM
- minimal effective concentration [2, 3]: 1 to 3.3 µM
- minimal effective concentration [2, 4]: 1.8 µM
- minimal effective concentration (D. immitis L4 larvae): 0.0001 µM
- DiMf/DiL4 (D. immitis L4 larvae): 1000

Structure (SMILES): Cc1cc(Cc2ccc(C[C@H]3OC(=O)[C@H](CC(C)C)N(C)C(=O)[C@@H](C)OC(=O)[C@H](CC(C)C)N(C)C(=O)[C@@H](Cc4ccc(Cc5cc(C)nn5C)cc4)OC(=O)[C@H](CC(C)C)N(C)C(=O)[C@@H](C)OC(=O)[C@H](CC(C)C)N(C)C3=O)cc2)n(C)n1 [Example 3-49, (3S,6R,9S,12R,15S,18R,21S,24R)-6,18-bis(4-((1,3-dimethyl-1H-pyrazol-5-yl)methyl)benzyl)-3,9,15,21-tetraisobutyl-4,10,12,16,22,24-hexamethyl-1,7,13,19-tetraoxa-4,10,16,22-tetraazacyclotetracosan-2,5,8,11,14,17,20,23-octaone]
- minimal effective concentration [1]: 0.005 µM
- minimal effective concentration [2, 3]: 1 to 3.3 µM
- minimal effective concentration [2, 4]: 3.3 µM
- minimal effective concentration (D. immitis L4 larvae): 0.001 µM
- DiMf/DiL4 (D. immitis L4 larvae): 5

Structure (SMILES): CC(C)C[C@H]1C(=O)O[C@H](Cc2ccc(Cc3occc3C#N)cc2)C(=O)N(C)[C@@H](CC(C)C)C(=O)O[C@H](C)C(=O)N(C)[C@@H](CC(C)C)C(=O)O[C@H](Cc2ccc(Cc3occc3C#N)cc2)C(=O)N(C)[C@@H](CC(C)C)C(=O)O[C@H](C)C(=O)N1C [Example 3-50, 2,2′-(((((2R,5S,8R,11 S,14R,17S,20R,23S)-5,11,17,23-tetraisobutyl-4,8,10,16,20,22-hexamethyl-3,6,9,12,15,18,21,24-octaoxo-1,7,13,19-tetraoxa-4,10,16,22-tetraazacyclotetracosane-2,14-diyl)bis(methylene))bis(4,1-phenylene))bis(methylene))bis(furan-3-carbonitrile)]
- minimal effective concentration [1]: 0.001 µM
- minimal effective concentration [2, 3]: < 1 µM
- minimal effective concentration [2, 4]: 0.3 µM
- minimal effective concentration [2, 5]: ≤ 1 µM
- minimal effective concentration (D. immitis L4 larvae): 0.0001 µM
- DiMf/DiL4 (D. immitis L4 larvae): 10

Structure (SMILES): CC(C)C[C@H]1C(=O)O[C@H](Cc2ccc(Cc3ccsc3)cc2)C(=O)N(C)[C@@H](CC(C)C)C(=O)O[C@H](C)C(=O)N(C)[C@@H](CC(C)C)C(=O)O[C@H](Cc2ccc(Cc3ccsc3)cc2)C(=O)N(C)[C@@H](CC(C)C)C(=O)O[C@H](C)C(=O)N1C [Example 3-56, (3S,6R,9S,12R,15S,18R,21S,24R)-3,9,15,21-tetraisobutyl-4,6,10,16,18,22-hexamethyl-12,24-bis(4-(thiophen-3-ylmethyl)benzyl)-1,7,13,19-tetraoxa-4,10,16,22-tetraazacyclotetracosan-2,5,8,11,14,17,20,23-octaone]
- minimal effective concentration [1]: 0.1 µM
- minimal effective concentration [2, 3]: < 1 µM
- minimal effective concentration [2, 4]: 0.5 µM
- minimal effective concentration [2, 5]: ≤ 1 µM
- minimal effective concentration (D. immitis L4 larvae): 0.0005 µM
- DiMf/DiL4 (D. immitis L4 larvae): 200

Structure (SMILES): CC(C)C[C@H]1C(=O)O[C@H](Cc2ccc(Cc3cocn3)cc2)C(=O)N(C)[C@@H](CC(C)C)C(=O)O[C@H](C)C(=O)N(C)[C@@H](CC(C)C)C(=O)O[C@H](Cc2ccc(Cc3cocn3)cc2)C(=O)N(C)[C@@H](CC(C)C)C(=O)O[C@H](C)C(=O)N1C [Example 3-57, (3S,6R,9S,12R,15S,18R,21S,24R)-3,9,15,21-tetraisobutyl-4,6,10,16,18,22-hexamethyl-12,24-bis(4-(oxazol-4-ylmethyl)benzyl)-1,7,13,19-tetraoxa-4,10,16,22-tetraazacyclotetracosan-2,5,8,11,14,17,20,23-octaone]
- minimal effective concentration [1]: 0.0003 µM
- minimal effective concentration [2, 3]: < 1 µM
- minimal effective concentration [2, 4]: 1 µM
- minimal effective concentration [2, 5]: ≤ 1 µM
- minimal effective concentration (D. immitis L4 larvae): 0.0003 µM
- DiMf/DiL4 (D. immitis L4 larvae): 1

Structure (SMILES): CC(C)C[C@H]1C(=O)O[C@H](Cc2ccc(Cc3coc(C#N)c3)cc2)C(=O)N(C)[C@@H](CC(C)C)C(=O)O[C@H](C)C(=O)N(C)[C@@H](CC(C)C)C(=O)O[C@H](Cc2ccc(Cc3coc(C#N)c3)cc2)C(=O)N(C)[C@@H](CC(C)C)C(=O)O[C@H](C)C(=O)N1C [Example 3-60, 4,4′-(((((2R,5S,8R,11 S,14R,17S,20R,23S)-5,11,17,23-tetraisobutyl-4,8,10,16,20,22-hexamethyl-3,6,9,12,15,18,21,24-octaoxo-1,7,13,19-tetraoxa-4,10,16,22-tetraazacyclotetracosane-2,14-diyl)bis(methylene))bis(4,1-phenylene))bis(methylene))bis(furan-2-carbonitrile)]
- minimal effective concentration [1]: 0.05 µM
- minimal effective concentration [2, 4]: > 10 µM
- minimal effective concentration (D. immitis L4 larvae): 0.001 µM
- DiMf/DiL4 (D. immitis L4 larvae): 50

Structure (SMILES): COc1cccc(Cc2ccc(C[C@H]3OC(=O)[C@H](CC(C)C)N(C)C(=O)[C@@H](C)OC(=O)[C@H](CC(C)C)N(C)C(=O)[C@@H](Cc4ccc(Cc5cccc(OC)n5)cc4)OC(=O)[C@H](CC(C)C)N(C)C(=O)[C@@H](C)OC(=O)[C@H](CC(C)C)N(C)C3=O)cc2)n1 [Example 3-69, (3S,6R,9S,12R,15S,18R,21S,24R)-3,9,15,21-tetraisobutyl-6,18-bis(4-((6-methoxypyridin-2-yl)methyl)benzyl)-4,10,12,16,22,24-hexamethyl-1,7,13,19-tetraoxa-4,10,16,22-tetraazacyclotetracosan-2,5,8,11,14,17,20,23-octaone]
- minimal effective concentration [1]: 0.03 µM
- minimal effective concentration [2, 3]: < 1 µM
- minimal effective concentration [2, 4]: 0.5 µM
- minimal effective concentration [2, 5]: ≤ 1 µM
- minimal effective concentration (D. immitis L4 larvae): 0.0007 µM
- DiMf/DiL4 (D. immitis L4 larvae): 42.9

Structure (SMILES): CC(C)C[C@H]1C(=O)O[C@H](Cc2ccc(Cc3sccc3Cl)cc2)C(=O)N(C)[C@@H](CC(C)C)C(=O)O[C@H](C)C(=O)N(C)[C@@H](CC(C)C)C(=O)O[C@H](Cc2ccc(Cc3sccc3Cl)cc2)C(=O)N(C)[C@@H](CC(C)C)C(=O)O[C@H](C)C(=O)N1C [Example 3-87, (3S,6R,9S,12R,15S,18R,21S,24R)-6,18-bis(4-((3-chlorothiophen-2-yl)methyl)benzyl)-3,9,15,21-tetraisobutyl-4,10,12,16,22,24-hexamethyl-1,7,13,19-tetraoxa-4,10,16,22-tetraazacyclotetracosan-2,5,8,11,14,17,20,23-octaone]
- minimal effective concentration [1]: 0.1 µM
- minimal effective concentration [2, 3]: < 1 µM
- minimal effective concentration [2, 4]: 0.3 µM
- minimal effective concentration [2, 5]: ≤ 1 µM
- minimal effective concentration (D. immitis L4 larvae): 0.0003 µM
- DiMf/DiL4 (D. immitis L4 larvae): 333
